Results: US11091511B2, “Panaxdiol-type ginsenoside derivative, preparation method therefor and use thereof” (ARMY MEDICAL UNIVERSITY, priority 2016, dated 2021)
Marks after values point to notes of the source that are not given here.

Legend:
[1] = tested on: RAW264.7 cells; assay: RAW264.7 cell survival rate by CCK8 method; format: cell-based, mouse; conditions: compound 10 prnol/L, 0.1% DMSO, CCK8, x ± s, n = 3, normal saline control = 1
Protocol: In order to further verify the toxicities of the compounds prepared in Examples 1-30 of the present invention, the mouse macrophage cell line RAW264.7 was cultured, and the compounds prepared in Examples 1-30 of the invention were prepared to a concentration of […] using culture medium, wherein the solvent was normal saline, the co-solvent was dimethyl sulfoxide (DMSO, the final concentratoin was 0.1%), and a 0.1% DMSO saline control group was provided. The cell survival rate was determined by CCK8 method. The data were expressed as x±s. SPSS 10.0 line single-factor analysis of variance was performed among groups. The difference was significant when p<0.05.

[2] = tested on: apoE−/− mice; assay: Atherosclerotic plaque area to total aortic area in apoE-/- mice on high-fat diet (Sudan IV staining); format: in vivo, mouse; conditions: intragastric 15 weeks, compounds 30 mg/(kg·d), simvastatin 10 mg/(kg·d), x ± s, n = 5, saline control 14.67 ± 3.58
From the text: The effects of the compounds prepared in Examples 1-30 of the present invention on the percentages of areas of atherosclerotic plaque formation to the area of the entire artery in apoE−/− mice with a high-fat diet and the levels of low-density lipoprotein cholesterol and the levels of high-density lipoprotein, the specific steps are as follows: 1. animals: 160 ten-week-old, healthy and clean-grade apoE−/− mice (purchased from Peking University Experimental Animal Center), males, weight: 22-25 g, were housed in separate cages in a sterile laminar feeding room and fed freely. The mice were fed by a high-fat diet (conventional feed+0.15% cholesterol+21% lard) for 25 weeks, the room temperature was kept at 24° C., relative humidity: 50%, illumination time 7:30-19:30. 2. Grouping, administration method: after 10 weeks of feeding, the animals were divided into the following 32 groups (n=5) by weight in a balanced and random manner, and killed 15 weeks after administration. Normal saline control group: normal saline, intragastric administration. Positive control group: simvastatin 10 mg/(kg·d), intragastric administration. The compound groups prepared in Examples 1-30 of the present invention (30 groups in total): each was intragastric administered 30 mg/(kg·d). (1) Analysis of the area of atherosclerotic plaque and its percentage to total area: after the animals were killed, the aortas were separated, from the roots of the aortas to the terminal bifurcations of the abdominal aortas. After formalin fixation, the aortas were stained with Sudan IV, the red stained parts were the areas of atherosclerotic lesions. The percentage of the area of the lesion area to total area was calculated using Image Pro Plus 5.0 software. Data were expressed as x±s, and SPSS 10.0 line single-factor analysis of variance was performed among groups, a significant difference was indicated when p<0.05.

[3] = tested on: apoE−/− mice; assay: Blood lipids (LDL-C, HDL-C) in apoE-/- mice on high-fat diet; format: in vivo, mouse; conditions: apoE-/- mice serum, intragastric 15 weeks, compounds 30 mg/(kg·d), simvastatin 10 mg/(kg·d), x ± s; for HDL-C: n = 5, saline control 3.74 ± 0.62; for LDL-C: n = 5, saline control 7.33 ± 1.03
From the text: The effects of the compounds prepared in Examples 1-30 of the present invention on the percentages of areas of atherosclerotic plaque formation to the area of the entire artery in apoE−/− mice with a high-fat diet and the levels of low-density lipoprotein cholesterol and the levels of high-density lipoprotein, the specific steps are as follows:
1. animals: 160 ten-week-old, healthy and clean-grade apoE−/− mice (purchased from Peking University Experimental Animal Center), males, weight: 22-25 g, were housed in separate cages in a sterile laminar feeding room and fed freely. The mice were fed by a high-fat diet (conventional feed+0.15% cholesterol+21% lard) for 25 weeks, the room temperature was kept at 24° C., relative humidity: 50%, illumination time 7:30-19:30.
2. Grouping, administration method:
after 10 weeks of feeding, the animals were divided into the following 32 groups (n=5) by weight in a balanced and random manner, and killed 15 weeks after administration.
Normal saline control group: normal saline, intragastric administration.
Positive control group: simvastatin 10 mg/(kg·d), intragastric administration.
The compound groups prepared in Examples 1-30 of the present invention (30 groups in total): each was intragastric administered 30 mg/(kg·d).
(2) Determination of the levels of total cholesterol (TC), low-density cholesterol lipoprotein (LDL-C) and high-density lipoprotein cholesterol (HDL-C): using ROCHE 7060 automatic biochemical analyzer for the determination.
Data were expressed as x±s, and SPSS 10.0 line single-factor analysis of variance was performed among groups, a significant difference was indicated when p<0.05.

[4] = tested on: TNF-α; assay: Local TNF-α level in the arteries of apoE-/- mice (Millipore liquid phase chip); format: in vivo, mouse; conditions: high-fat diet, intragastric 15 weeks, compounds 30 mg/(kg·d), simvastatin 10 mg/(kg·d), x ± s, n = 5, saline control 25.58 ± 6.44
From the text: The effects of the compounds prepared in Examples 1-30 of the present invention on the percentages of areas of atherosclerotic plaque formation to the area of the entire artery in apoE−/− mice with a high-fat diet and the levels of low-density lipoprotein cholesterol and the levels of high-density lipoprotein, the specific steps are as follows: 1. animals: 160 ten-week-old, healthy and clean-grade apoE−/− mice (purchased from Peking University Experimental Animal Center), males, weight: 22-25 g, were housed in separate cages in a sterile laminar feeding room and fed freely. The mice were fed by a high-fat diet (conventional feed+0.15% cholesterol+21% lard) for 25 weeks, the room temperature was kept at 24° C., relative humidity: 50%, illumination time 7:30-19:30. 2. Grouping, administration method: after 10 weeks of feeding, the animals were divided into the following 32 groups (n=5) by weight in a balanced and random manner, and killed 15 weeks after administration. Normal saline control group: normal saline, intragastric administration. Positive control group: simvastatin 10 mg/(kg·d), intragastric administration. The compound groups prepared in Examples 1-30 of the present invention (30 groups in total): each was intragastric administered 30 mg/(kg·d). (3) Determination of TNF-α level: Millipore liquid phase chip method was used for the determination (Mcytomag-70K-3, Mouse Cytokine/Chemokine Magnetic Bead Panel). Data were expressed as x±s, and SPSS 10.0 line single-factor analysis of variance was performed among groups, a significant difference was indicated when p<0.05.

[5] = tested on: RAW264.7 cell-derived foam cells; assay: Formation of RAW264.7 cell-derived foam cells (ox-LDL, oil red O, absorbance 490 nm); format: cell-based, mouse; conditions: 48 hours, model group = 100%, x ± s, n = 3
Protocol: The effects of the compounds prepared in Examples 1-30 of the present invention on the formation of RAW264.7 cell-derived foam cells, the specific steps are as follows:
1. Cell culture and foam cell model establishment:
RAW264.7 cells were cultured in DMEM culture medium with high glucose level (GIBCO) to a cell concentration of 1×10^6, planted in a 6-well plate, and 60 mg/L of ox-LDL (oxidized modified low-density lipoprotein, Peking Union Medical College) was added, foam cells were obtained after 48 hours of incubation.
2. Grouping and index detection:
The obtained foam cells were divided into 61 groups, 3 well plates were included in one group. After the treatment by adding the drugs (100 μL/well) for 48 hours, the medium was discarded, and after oil red 0 staining, the excess amount of oil red 0 was washed away. The cells were dissolved in isopropanol and the absorbance values were measured at 490 nm. The OD value of the model group was 100%, and the OD value of each group corrected by the number of cells was compared with the model group to obtain the ratio of intracellular lipid content. The larger the value, the more intracellular lipids, the higher the degree of formation of foam cells.
Normal saline control group: normal saline
Low dose groups of the compounds prepared in Examples 1-30 of the present invention:
10 μmol/L (solvents were normal saline).
High dose groups of compounds prepared in Examples 1-30 of the present invention: 30 μmol/L (solvents were normal saline).
Data were expressed as x±s, and SPSS 10.0 line single-factor analysis of variance was performed amoung groups, a significant difference was indicated when p<0.05.

SMILES | Cell Survival Rate [1] | Plaque area/total aorta area (%) [2] | HDL-C [3] | LDL-C [3] | TNF-α level (ng/g) [4] | Foam cell formation (%) ([5]; dose 10 μmol/L) | Foam cell formation (%) ([5]; dose 30 μmol/L)
COC(=O)[C@H](Cc1ccccc1)NCCC[C@](C)(O[C@H]1O[C@H](COC(C)=O)[C@@H](OC(C)=O)[C@H](OC(C)=O)[C@H]1OC(C)=O)C1CC[C@]2(C)[C@@H]1C(OC(C)=O)CC1[C@@]3(C)CC[C@H](OC(C)=O)C(C)(C)C3CC[C@]12C (stereo partly shown) [Compound 12] | 0.87 ± 0.16 | 10.23 ± 3.54 ^a % | 4.44 ± 0.83 ^a mmol/L | 5.27 ± 1.74 ^a mmol/L | 18.27 ± 5.24 ^a ng/g | 84 ± 15% | 68 ± 21 ^a %
COC(=O)[C@@H](Cc1ccc(O)cc1)NCCC[C@](C)(O[C@H]1O[C@H](COC(C)=O)[C@@H](OC(C)=O)[C@H](OC(C)=O)[C@H]1OC(C)=O)C1CC[C@]2(C)[C@@H]1C(OC(C)=O)CC1[C@@]3(C)CC[C@H](OC(C)=O)C(C)(C)C3CC[C@]12C (stereo partly shown) [Compound 13] | 0.85 ± 0.12 | 9.44 ± 3.24 ^a % | 5.29 ± 1.18 ^a mmol/L | 5.07 ± 0.99 ^a mmol/L | 15.65 ± 6.74 ^a ng/g | 71 ± 14 ^a % | 47 ± 23 ^a %
COC(=O)[C@H](Cc1c[nH]cn1)NCCC[C@](C)(O[C@H]1O[C@H](COC(C)=O)[C@@H](OC(C)=O)[C@H](OC(C)=O)[C@H]1OC(C)=O)C1CC[C@]2(C)[C@@H]1C(OC(C)=O)CC1[C@@]3(C)CC[C@H](OC(C)=O)C(C)(C)C3CC[C@]12C (stereo partly shown) [Compound 14] | 0.83 ± 0.06 | 9.34 ± 3.01 ^a % | 4.39 ± 0.59 ^a mmol/L | 5.58 ± 1.11 ^a mmol/L | 16.92 ± 5.04 ^a ng/g | 78 ± 18 ^a % | 66 ± 16 ^a %
COC(=O)[C@H](CC1CNc2ccccc21)NCCC[C@](C)(O[C@H]1O[C@H](COC(C)=O)[C@@H](OC(C)=O)[C@H](OC(C)=O)[C@H]1OC(C)=O)C1CC[C@]2(C)[C@@H]1C(OC(C)=O)CC1[C@@]3(C)CC[C@H](OC(C)=O)C(C)(C)C3CC[C@]12C (stereo partly shown) [Compound 15] | 0.88 ± 0.04 | 10.22 ± 2.19 ^a % | 4.12 ± 0.82 ^a mmol/L | 6.54 ± 1.36 mmol/L | 16.07 ± 3.67 ^a ng/g | 68 ± 12 ^a % | 56 ± 22 ^a %
